The text below walks through data of patent US11952384B2, “Anti-tumor compound and preparation method and use thereof” (DUALITY BIOLOGICS (SUZHOU) CO., LTD., priority 2020, dated 2024).

The structures appear in SMILES notation. Like-named read-outs stand apart in the source and are kept apart here.

The test system of data set [1] is JIMT-1 cells. Nature of the data set: Inhibition of in vitro proliferation of tumor cells by compounds (CTG, 6 days). It is filed as cell-based. The procedure:
(§1) To test the inhibitory activity of the pharmaceutical compounds on the in vitro proliferation of NCI-N87, JIMT-1 and MBA-MB-231 tumor cells. The cells were treated with the compounds at different concentrations in vitro, and after 6 days of culture, the proliferation of cells was detected using the CTG (CellTiter-Glo® Luminescent Cell Viability Assay, Promega, Cat. No. G7558) reagent, and the in vitro activity of the compounds was evaluated according to the IC50 value.
(§2) In the following, the test for the inhibition of the in vitro proliferation of NCI-N87 cells was taken as an example to illustrate the method of the present application for testing the inhibitory activity of the compounds of the present application on the in vitro proliferation of tumor cells. The method was also applicable to, but not limited to, the test for the inhibitory activity on the in vitro proliferation of other tumor cells. • 1. Culturing of cells: NCI-N87 cells were cultured in RPMI-1640 medium containing 10% FBS. • 2. Preparation of cells: NCI-N87 cells in logarithmic phase were taken, washed with PBS once, and digested with 2-3 mL of trypsin for 2-3 min. After the cells were digested completely, 10-15 mL of cell culture was added to elute the digested cells. The eluate was centrifuged at 1000 rpm for 5 min, and the supernatant was discarded. The resulting cells were resuspended in 10-20 mL of cell culture to obtain a single cell suspension. • 3. Cell plating: the NCI-N87 single cell suspension was mixed well and adjusted to a viable cell density of 6×10^4 cells/mL with cell culture. The cell suspension with the adjusted density was mixed well and added to a 96-well cell culture plate at 50 μL/well. The culture plate was incubated in an incubator for 18 h (37° C., 5% CO2). • 4. Preparation of compounds: the compounds were dissolved in DMSO to obtain stock solutions at an initial concentration of 10 mM. There were 8 concentrations in total for the small molecule compounds: 300 nM, 100 nM, 30 nM, 10 nM, 3 nM, 1 nM, 0.3 nM, and 0.1 nM. • 5. Sample adding: the prepared samples to be detected at different concentrations were added to the culture plate, and two duplicate wells were set for each sample. The culture plate was incubated in an incubator for 6 days (37° C., 5% CO2). • 6. Color developing: the 96-well cell culture plate was taken out, added with the CTG reagent at 50 μL/well, and incubated at room temperature for 10 min. • 7. Plate reading: the 96-well cell culture plate was taken out, placed in a microplate reader, and measured for the chemiluminescence using the microplate reader. Data Analysis
(§3) Data were processed and analyzed using Microsoft Excel and Graphpad Prism 5.
(§4) To test the inhibitory activity of the pharmaceutical compounds on the in vitro proliferation of NCI-N87, JIMT-1 and MBA-MB-231 tumor cells. The cells were treated with compounds at different concentrations in vitro, and after 6 days of culture, the proliferation of cells was detected using CTG (CellTiter-Glo® Luminescent Cell Viability Assay, Promega, Cat. No. G7558) reagents, and the in vitro activity of the compounds was evaluated according to the IC50 value. • 1. Culturing of cells: NCI-N87/JIMT-1/MBA-MB-231 cells were cultured in RPMI-1640 medium containing 10% FBS. • 2. Preparation of cells: NCI-N87/JIMT-1/MBA-MB-231 cells in logarithmic phase were taken, washed with PBS once, and digested with 2-3 mL of trypsin for 2-3 min. After the cells were digested completely, 10-15 mL of cell culture was added to elute the digested cells. The eluate was centrifuged at 1000 rpm for 5 min, and the supernatant was discarded. The resulting cells were resuspended in 10-20 mL of cell culture to obtain a single cell suspension. • 3. Cell plating: the NCI-N87/JIMT-1/MBA-MB-231 single cell suspension was mixed well and adjusted to a viable cell density of 6×10^4 cells/mL with cell culture. […]

Data set [2] addresses T1, BCRP (Homo sapiens, UniProt Q9UNQ0).
T1 sequence (Q9UNQ0 1-655): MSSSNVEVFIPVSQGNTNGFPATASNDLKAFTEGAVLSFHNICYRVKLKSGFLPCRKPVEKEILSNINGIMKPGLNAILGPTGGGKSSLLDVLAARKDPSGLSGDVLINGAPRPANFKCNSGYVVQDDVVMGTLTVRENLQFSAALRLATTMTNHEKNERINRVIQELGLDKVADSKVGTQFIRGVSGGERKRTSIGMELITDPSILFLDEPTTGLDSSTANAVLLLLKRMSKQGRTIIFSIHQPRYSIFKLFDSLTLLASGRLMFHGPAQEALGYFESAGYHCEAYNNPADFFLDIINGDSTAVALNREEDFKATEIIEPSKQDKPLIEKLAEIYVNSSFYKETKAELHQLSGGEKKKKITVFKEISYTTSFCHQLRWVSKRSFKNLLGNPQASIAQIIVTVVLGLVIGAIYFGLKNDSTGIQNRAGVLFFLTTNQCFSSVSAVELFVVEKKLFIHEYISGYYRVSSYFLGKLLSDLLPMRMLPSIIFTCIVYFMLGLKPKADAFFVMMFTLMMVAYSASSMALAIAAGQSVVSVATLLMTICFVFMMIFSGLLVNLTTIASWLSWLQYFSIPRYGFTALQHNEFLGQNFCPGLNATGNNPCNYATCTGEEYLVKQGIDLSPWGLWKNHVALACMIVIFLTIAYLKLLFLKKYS

Data set [3] addresses T1, BCRP. Briefly: in vitro. The note with it: for efflux ratio at 2 h: Caco-2; for Papp A→B at 2 h: Caco-2, Papp (A-B) (10^−6, cm/s); for Papp B→A at 2 h: Caco-2, Papp (B-A) (10^−6, cm/s). (Passage across Caco-2 layers is used to estimate intestinal permeability.)
In data set [4] the target is T1, BCRP. Briefly: Study on transporter substrates in Caco-2 cell model. Conditions: human, Caco-2.
Data set [5] relates to NCI-N87 cells. Nature of the data set: Inhibition of in vitro proliferation of tumor cells by compounds (CTG, 6 days). It is filed as cell-based. The note with it: Homo sapiens, NCI-N87, 144 h, read-out: NCI-N87 IC50 (nM). The procedure: as §1, §2, §3, §4
Where [6] appears, read: Homo sapiens, JIMT-1, 144 h, read-out: JIMT-1 IC50 (nM).

As to `CC[C@@]1(O)C(=O)OCc2c1cc1n(c2=O)Cc2c-1nc1cc(F)c(C)c3c1c2[C@@H](NC(=O)CCN)CC3` [compound 2, N-((1S,9S)-9-ethyl-5-fluoro-9-hydroxy-4-methyl-10,13-dioxo-2,3,9,10,13,15-hexahydro-1H,12H-benzo[de]pyrano[3′,4′:6,7]indolino[1,2-b]quinolin-1-yl)-3-aminopropionamide, reference compound], the half-inhibitory concentration (IC50) in data set [1] (Table 3, Test Example 2.3, small molecule fragments, 6 days of culture, CTG, read-out: JIMT-1 IC50) stood at 36.2 nM.

As to `CC(C)NCC(O)COc1cccc2ccccc12` (centres unmarked) [Propranolol], the BCRP substrate entry in data set [2] (Caco-2) is on record as “No”. Also, in data set [3], the efflux ratio at 2 h is 1.09, the Papp A→B at 2 h stood at 17.3 ×10⁻⁶ cm/s and the Papp B→A at 2 h is 18.9 ×10⁻⁶ cm/s. Further, in data set [3] (Caco-2, Recovery rate (%) AP-BL), the recovery at 2 h amounted to 62.2%. The compound further gave a recovery at 2 h in data set [3] (Caco-2, Recovery rate (%) BL-AP) of 82.4%.

As to `CC(C)c1nc(N(C)S(C)(=O)=O)nc(-c2ccc(F)cc2)c1/C=C/[C@@H](O)C[C@@H](O)CC(=O)O` [Rosuvastatin, rosuvastatin, reference compound], in data set [2] (Caco-2), the BCRP substrate result is listed as “Yes”; the “Papp (A-B) (10^−6, cm/s)” value is on record as 0.45 10^−6, cm/s; the “Papp (B-A) (10^−6, cm/s)” value is given as 3.15 10^−6, cm/s. Besides, the Efflux ratio in data set [2] (human, Caco-2, 2 h) is reported as 6.96. In data set [3], the efflux ratio at 2 h came out at 81.2, the Papp A→B at 2 h was 0.12 ×10⁻⁶ cm/s and the Papp B→A at 2 h amounted to 9.52 ×10⁻⁶ cm/s. In data set [4] (Caco-2, Recovery rate (%) AP-BL, KO143 −), this compound returned a recovery at 2 h of 98.5%. In data set [4] (Caco-2, Recovery rate (%) BL-AP, KO143 −), the recovery at 2 h turned out to be 96.8%. Besides, the recovery at 2 h in data set [4] (Caco-2, with KO143 (concentration not stated), Recovery rate (%) AP-BL, KO143 +) came to 95.8%. In data set [4] (Caco-2, with KO143 (concentration not stated), Recovery rate (%) BL-AP, KO143 +), the recovery at 2 h came out at 97.1%.

With `CC[C@@]1(O)C(=O)OCc2c1cc1n(c2=O)Cc2c-1nc1cc(F)c(C)c3c1c2[C@@H](NC(=O)CCO)CC3` [compound 3, N-((1S,9S)-9-ethyl-5-fluoro-9-hydroxy-4-methyl-10,13-dioxo-2,3,9,10,13,15-hexahydro-1H,12H-benzo[de]pyrano[3′,4′:6,7]indolizino[1,2-b]quinolin-1-yl)-3-hydroxypropanamide, reference compound], the IC50 in data set [1] (Homo sapiens, JIMT-1, 144 h, Table 3, Test Example 2.3, small molecule fragments, 6 days of culture, CTG, read-out: JIMT-1 IC50) came to 81.2 nM.

As for `CC[C@@]1(O)C(=O)OCc2c1cc1n(c2=O)Cc2c-1nc1cc(F)c(C)c3c1c2[C@@H](NC(=O)CC(=O)CO)CC3` [P-III-22, N-((1S,9S)-9-ethyl-5-fluoro-9-hydroxy-4-methyl-10,13-dioxo-2,3,9,10,13,15-hexahydro-1H,12H-benzo[de]pyrano[3′,4′:6,7]indolizino[1,2-b]quinolin-1-yl)-4-hydroxy-3-oxobutanamide], the IC50 in data set [1] (setting [6]) amounted to 12.5 nM.

With `CC[C@@]1(O)C(=O)OCc2c1cc1n(c2=O)Cc2c-1nc1cc(F)c(C)c3c1c2[C@@H](NC(=O)C(C)C(C)O)CC3` (stereo partly drawn) [compound 4, N-((1S,9S)-9-ethyl-5-fluoro-9-hydroxy-4-methyl-10,13-dioxo-2,3,9,10,13,15-hexahydro-1H,12H-benzo[de]pyrano[3′,4′:6,7]indolizino[1,2-b]quinolin-1-yl)-3-hydroxy-2-methylbutanamide, reference compound], the IC50 in data set [1] (setting [6]) is 32.3 nM.

Regarding `CC[C@@]1(O)C(=O)OCc2c1cc1n(c2=O)Cc2c-1nc1cc(F)c(C)c3c1c2[C@@H](NC(=O)C1(O)CCC1)CC3` [compound 1, N-((1S,9S)-9-ethyl-5-fluoro-9-hydroxy-4-methyl-10,13-dioxo-2,3,9,10,13,15-hexahydro-1H,12H-benzo[de]pyrano[3′,4′:6,7]indolizino[1,2-b]quinolin-1-yl)-1-hydroxycyclobutane-1-carboxamide, reference compound], in data set [1] (Homo sapiens, JIMT-1, 144 h, Table 2 (untitled), Test Example 2.2, small molecule fragments, 6 days of culture, CTG, read-out: JIMT-1 IC50), the IC50 turned out to be 23.1 nM.

Consider `CC[C@@]1(O)C(=O)OCc2c1cc1n(c2=O)Cc2c-1nc1cc(F)c(C)c3c1c2[C@@H](NC(=O)C1CCCC(O)C1)CC3` (stereo partly drawn) [P-II-22, N-((1S,9S)-9-ethyl-5-fluoro-9-hydroxy-4-methyl-10,13-dioxo-2,3,9,10,13,15-hexahydro-1H,12H-benzo[de]pyrano[3′,4′:6,7]indolizino[1,2-b]quinolin-1-yl)-3-hydroxycyclohexane-1-carboxamide], for which the IC50 in data set [1] (setting [6]) turned out to be 3.2 nM.

`CCCC(O)CC(=O)N[C@H]1CCc2c(C)c(F)cc3nc4c(c1c23)Cn1c-4cc2c(c1=O)COC(=O)[C@]2(O)CC` (stereo partly drawn) [P-III-27, N-((1S,9S)-9-ethyl-5-fluoro-9-hydroxy-4-methyl-10,13-dioxo-2,3,9,10,13,15-hexahydro-1H,12H-benzo[de]pyrano[3′,4′:6,7]indolizino[1,2-b]quinolin-1-yl)-3-hydroxyhexanamide]: the IC50 in data set [5] was found to be 3 nM.

On to `CC[C@@]1(O)C(=O)OCc2c1cc1n(c2=O)Cc2c-1nc1cc(F)c(C)c3c1c2[C@@H](NC(=O)CCS)CC3` [P-III-2, N-((1S,9S)-9-ethyl-5-fluoro-9-hydroxy-4-methyl-10,13-dioxo-2,3,9,10,13,15-hexahydro-1H,12H-benzo[de]pyrano[3′,4′:6,7]indolizino[1,2-b]quinolin-1-yl)-3-mercaptopropanamide], for which the IC50 in data set [1] (setting [6]) and in data set [5] was 108 nM each time.

In general, IC50 refers to the concentration that gives 50% inhibition. Broadly, the efflux ratio is the permeability from basolateral to apical divided by that in the opposite direction, in the common usage. In general, Papp A→B refers to how fast a substance crosses the layer from the apical side. Read a low Papp A→B as slow passage. As a reminder, the Papp B→A is the apparent permeability from the basolateral to the apical side of a cell layer.
